Among the data in patent publication US20060089400A1, “Novel spiro ketone and carboxylic acid derivatives as specific inhibitors for (po3h2) ser/(po3h2)thr-pro-specific peptidyl-prolylcis/trans-isomerases” (The Vernalis Group of Companies, priority 2002, published 2006) are Ki values, retold here.

pKi: −log10 of the molar value.

The target of this assay is T1, human Pin1 (recombinant from E. coli) (Homo sapiens, UniProt Q13526).
T1 construct: made in house; host or cells: E. coli
T1 sequence (Q13526 whole entry): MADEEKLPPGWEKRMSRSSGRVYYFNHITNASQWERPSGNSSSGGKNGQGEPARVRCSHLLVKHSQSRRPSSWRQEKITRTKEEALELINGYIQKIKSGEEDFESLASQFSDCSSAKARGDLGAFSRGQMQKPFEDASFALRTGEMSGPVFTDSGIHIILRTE
As to the kind of experiment: protease-coupled PPIase assay, inhibition of hPin1. The format is biochemical. Particulars: protease-coupled PPlase assay; substrate Ac-Ala-Ala-(PO3H2)Ser-Pro-Arg-(4-)nitroanilide; trypsin; 2 nM enzyme; 35 mM HEPES pH 7.8; 10° C.; 5 min preincubation; read-out: hPin1-inhibition K1. The text has this:
As described in example 1, the peptidyl-prolyl-cis/trans-isomerase activity can be determined in the so-called protease coupled PPlase assay with the help of isomer-specific proteolysis and the suitable oligopeptide substrates and isomer-specific proteases. Other processes for the detection of PPlase activity are e.g. observing isomer-specific differences with respect to spectroscopic properties, their mobilities or the foldback catalysis of other proteins as well as isomer-specific chemical compounds when recording core resonance spectra.
If adding active components to one of the test systems listed above leads to a measurable decrease in the reaction speed catalysed by the respective PPlase, these active components are classed PPlase inhibitors, as is exemplarily shown in example 1. Assessment of the PPlase specificity of the inhibitor is carried out by testing different PPlases in the assay. By varying the concentration of the inhibitor and assessing the results measured with conventional processes, the corresponding inhibition constant (KI-value) can be determined. The concentration of the inhibitor which inhibits the PPlase-induced catalysis by 50% is called IC50-value.
Determining the inhibition constants of the selected compound according to the invention 1′,2′,3′H-spiro[indene-3′,3-(3H-5-methoxy-benzofurane-2-one)] vis-à-vis the PPlase hPinl by protease-coupled PPlase assay: • Buffer: 35 mM HEPES (pH 7.8), 1,200 μl • Substrate: Ac-Ala-Ala-(PO3H2)Ser-Pro-Arg-(4-)nitroanilide stock solution 10 mg/ml in 35 mM Hepes (pH 7.8), • Auxiliary protease: trypsin (Roth), stock solution 10 mg/ml in 35 mM Hepes (ph 7.8), concentration in the solution for measuring 0.34 mg/ml • Enzyme: human Pin1 (recombinant from E. coli), stock solution 0.55 μM, concentration in the solution for measuring: 2 nM • Effectors: effector stock solution 10 mM in DMSO, concentration in the solution for measuring between 1,000 and 0.01 μM • Temperature: 10° C.
In the incubation solution, the effectors were preincubated with the enzyme for 5 min, then 3.5 μl of the auxiliary protease trypsin were added and the reaction was started immediately afterwards by adding 3.5 μl substrate. The reaction was monitored at a wave length of 390 nm with the measuring instrument Hewlett Packard UVNIS spectrophotometer HP 8452A. The kinetic analysis of the data was carried out by “SigmaPlot” (Scientific Graphing System Vers. 2.0, Jandel Corp.).
`COc1ccc2c(c1)C1(CCc3ccccc31)C(=O)O2` (stereo not drawn) [1′,2′,3′H-spiro[indene-3′,3-(3H-5-methoxy-benzofurane-2-one)]]: the pKi is 5.22.
In the case of `COc1ccc(OC)c(C(=O)C2CCc3ccccc32)c1` (stereo not drawn) [1-(2,5-dimethoxyphenyl)-1′-indane-1′-1-methanone] it was 4.30; in that of `COC(=O)C1(c2ccccc2O)CCc2ccccc21` (stereo not drawn), 4.57.
As for `COc1ccc2c(c1)C1(CC(C)c3ccccc31)C(=O)O2` (stereo not drawn) [1′,2′,3′H-sprio[1′-methyl-indene-3′,3-(3H-5-methoxy-benzofurane-2-one)]], the pKi is 4.70.
In the case of `O=C1Oc2ccccc2C12CC=CC2` [1′,2′,3′H-spiro[cyclopentene-3′,3-(3H-benzofurane-2-one)]] it was 3.82; in that of `O=C1Oc2ccccc2C12Cc1ccccc1C2` [1′,2′,3′H-sprio[indene-2′,3-(3H-benzofurane-2-one)]], 5.15.
